Data taken from patent US20240294572A1, “Antimicrobial Peptides” (priority 2021, published 2024).
Non-standard residues stand in square brackets, D forms with d. Residues, ends and D or L forms follow the SMILES beside them. *: point of attachment. Decanoyl = CCCCCCCCCC(=O)*

Legend:
HaCaT cells = format: cell-based, human
Experimental: Peptides were assessed for potential cytotoxicity using HaCaT cells (Addexbio Technologies, CA). Briefly, cells were seeded at a density of 1×10^4 per well in a tissue culture 96-well plate. DMEM was supplemented with 10% fetal bovine serum (FBS) and incubated at 37° C. in a 5% CO2 atmosphere for 24 hours. Culture medium was aspirated and replaced with fresh serum free media. Cells were exposed to different concentrations of peptides for 1 hour at 37° C. in a 5% CO2 atmosphere. Post-incubation, the cells were washed and incubated with 100 μL of DMEM media containing 20 μL of MTS reagent for 2 hours at 37° C. Absorbance was read at 492 nm using a ChroMate® microplate reader (Awareness Technology, FL).

[1] = tested on: S. aureus USA300 transposon mutant SAUSA300_0186 (argC); assay: Antimicrobial susceptibility of transposon mutant; format: cell-based; design: key: No = no MIC changes of C10-KR8d against the WT and the mutant S. aureus strains measured in 50% TSB; conditions: mutant SAUSA300_0186 argC versus WT
Experimental: (§1) The antimicrobial susceptibility of over 20 MRSA transposon mutants were also tested, based on a transposon library screening, in the presence of LL-37 peptides (Golla, et al. (2020) ACS Infect. Dis., 6:1866-1881). This Nebraska Transposon Mutant Library of S. aureus USA300 consists of 1920 mutants, each with one nonessential gene disabled due to a transposon insertion (Fey, et al. (2013) mBio 4:e00537-12). The correct insertion of the transposon to each Staph mutant had been verified (Golla, et al. (2020) ACS Infect. Dis., 6:1866-1881). Antimicrobial susceptibility to the new peptide C10-KR8d was evaluated in the same manner as MIC assays. Susceptible strains could be inhibited at a peptide concentration lower than the MIC against the wild strain S. aureus JE2.

[2] = tested on: S. aureus USA300 transposon mutant SAUSA300_1097 (pyrF); assay: Antimicrobial susceptibility of transposon mutant; format: cell-based; design: key: No = no MIC changes of C10-KR8d against the WT and the mutant S. aureus strains measured in 50% TSB; conditions: mutant SAUSA300_1097 pyrF versus WT
Experimental: as §1

[3] = tested on: S. aureus USA300 transposon mutant SAUSA300_1898; assay: Antimicrobial susceptibility of transposon mutant; format: cell-based; design: key: No = no MIC changes of C10-KR8d against the WT and the mutant S. aureus strains measured in 50% TSB; conditions: mutant SAUSA300_1898 versus WT
Experimental: as §1

[4] = tested on: S. aureus USA300 transposon mutant SAUSA300_1336; assay: Antimicrobial susceptibility of transposon mutant; format: cell-based; design: key: No = no MIC changes of C10-KR8d against the WT and the mutant S. aureus strains measured in 50% TSB; conditions: mutant SAUSA300_1336 versus WT
Experimental: as §1

[5] = tested on: S. aureus USA300 transposon mutant SAUSA300_1465; assay: Antimicrobial susceptibility of transposon mutant; format: cell-based; design: key: No = no MIC changes of C10-KR8d against the WT and the mutant S. aureus strains measured in 50% TSB; conditions: mutant SAUSA300_1465 versus WT
Experimental: as §1

[6] = tested on: S. aureus USA300 transposon mutant SAUSA300_0829 (lipA); assay: Antimicrobial susceptibility of transposon mutant; format: cell-based; design: key: No = no MIC changes of C10-KR8d against the WT and the mutant S. aureus strains measured in 50% TSB; conditions: mutant SAUSA300_0829 lipA versus WT
Experimental: as §1

[7] = tested on: S. aureus USA300 transposon mutant SAUSA300_0394; assay: Antimicrobial susceptibility of transposon mutant; format: cell-based; design: key: No = no MIC changes of C10-KR8d against the WT and the mutant S. aureus strains measured in 50% TSB; conditions: mutant SAUSA300_0394 versus WT
Experimental: as §1

S. aureus USA300 LAC [8] = assay: Bacterial resistance development, multiple passage experiment; format: cell-based; conditions: 14 passages/days at sub-MIC
Experimental: This experiment was performed similar to the MIC determination with a few modifications as described (Mishra, et al. (2019) Proc. Natl. Acad. Sci., 116:13517-13522). In short, an exponential phase S. aureus USA300 culture (i.e., optical density at 600 nm≈0.5) was diluted and partitioned into a 96-well polystyrene microplate with ˜10^5 bacteria per well (90 μL aliquots). After treatment with 10 μL of peptide or nafcillin solutions at various concentrations, microplates were incubated at 37° C. overnight and read on a ChroMate® 4300 Microplate Reader at 630 nm (Awareness Technology, FL). Of the wells with sub-MIC levels of the peptides that retained growth, approximately half of the control wells were again reinoculated in fresh TSB with sub-MIC concertation of peptides or antibiotics to attain exponential phase for MIC determination. Up to 15 serial passages of the bacteria cultures were conducted. The increase in the fold change (MIC on given passage/MIC recorded in first day of passage) was used to determine the degree of drug resistance.

S. aureus USA300 LAC [9] = assay: Neutropenic murine infection model, systemic efficacy; format: in vivo, C57BL/6 mice; conditions: 5 mg/kg i.p. single dose 2 hours post infection, versus untreated
Experimental: Female C57BL/6 mice (6 weeks old) were purchased from Charles River. After environmental adaptation, mice were induced to be neutropenic by the administration of two doses of cyclophosphamide on Day 1 (150 mg/kg) and Day 4 (100 mg/kg). On Day 5, mice were infected with S. aureus USA300 (˜2×10^6 CFU per mouse) via intraperitoneal injection (i.p.) (Lakshmaia, et al. (2020) Proc. Natl. Acad. Sci., 117:19446-19454). For the treatment groups, mice were i.p. treated 2 hours post infection with peptides at a single dose of 5 mg/kg. This bacterial strain was able to disseminate to different organs 2 hours post infection (Lakshmaia, et al. (2020) Proc. Natl. Acad. Sci., 117:19446-19454). At the end of the experiments, all the animals were sacrificed according to institutional guidelines. Organs, including spleen, liver, lung, and kidney, were harvested, weighed, and placed in 1 mL of sterile PBS and stored on ice. Harvested organs were subsequently homogenized using an Omni Homogenizer. Proper dilutions were made to get countable colonies. The homogenates were plated onto blood agar plates and incubated overnight at 37° C. The CFU of each murine tissue was plotted as an individual point, and error bars represent the deviation within the experimental group. * indicates p<0.05, **p<0.01, ***p<0.001, and NS means no significance (determined by Mann-Whitney test).

SMILES: CCCCCCCCCC(=O)N[C@H](CCCCN)C(=O)N[C@H](CCCNC(=N)N)C(=O)N[C@@H](C(=O)N[C@H](Cc1c[nH]c2ccccc12)C(=O)N[C@H](CCC(N)=O)C(=O)N[C@H](CCCNC(=N)N)C(=O)N[C@@H](C(=O)N[C@H](CCCCN)C(N)=O)[C@H](C)CC)[C@H](C)CC [Peptide C10-KR8d] (Decanoyl-[dK][dR][dI][dW][dQ][dR][dI][dK]-NH2)
- relative toxicity to HaCaT cells (HaCaT cells): slightly more toxic than C10-KR8
- Susceptible? [1]: No
- Susceptible? [2]: No
- Susceptible? [3]: No
- Susceptible? [4]: No
- Susceptible? [5]: No
- Susceptible? [6]: No
- Susceptible? [7]: No
- MIC increase in multiple passage experiment (S. aureus USA300 LAC [8]): no changes
- CFU decrease in mouse lung and liver (S. aureus USA300 LAC [9]): 0.5-1 log
- CFU decrease in spleen and kidney (S. aureus USA300 LAC [9]): not in spleen and kidney
